Source: patent US20260183320A1, “METHOD FOR TREATING CANCER BY COMBINING ALKYLATING AGENT PRODRUG AND CELL CYCLE INHIBITOR” (ASCENTAWITS PHARMACEUTICALS, LTD., priority 2022, published 2026)

Legend:
[1] = system: wild-type p53-expressing (H460) cell line; experiment: CTG cell proliferation assay, H460 cell line; format: cell-based; details: for IC50: Homo sapiens, 72 h
Procedure: (§1) Each CTG cell proliferation assay included the steps as follows: • 1) An H460 or HT29 cell suspension was added to a 96-well plate at 100 μL per well so that each well contained 2000 or 10000 cells. • 2) The cells were incubated overnight at 37° C. in an incubator with 5% CO2. • 3) Treatment with Compounds
(§2) Combination therapy: 1 μL of adavosertib (at four concentrations), AZD7762 (at four concentrations), palbociclib (at four concentrations) or ceralasertib (at three concentrations) was added to each well and shaken gently until homogeneous mixing.
(§3) 7) Chemiluminescence was read for 1000 ms on a multimode microplate reader. • 8) IC50 (half-maximal inhibitory concentration) values of the compounds were calculated using the GraphPad Prism 5 software. 1.

[2] = system: p53-deficient (HT29) cell line; experiment: CTG cell proliferation assay, HT29 cell line; format: cell-based; details: for IC50: Homo sapiens, 72 h
Procedure: as §1, §2, §3

[3] = H460 (wild-type p53), all concentrations
[4] = H460 (wild-type p53), both drugs at low concentrations
[5] = HT29 (p53-deficient), various concentrations, also low

O=[N+]([O-])c1ccc(C(OP(=O)(N2CC2)N2CC2)C(F)(F)F)cc1Oc1ccc(-c2ccc(F)cc2)c(F)c1 (stereo not shown) [AST]
additive cytotoxic effect in combination therapy with AZD7762 ([1]; H460 (wild-type p53), AZD7762 160 nM): certain additive cytotoxic effects
additive cytotoxic effect in combination therapy with adavosertib [1, 3]: did not exhibit any additive toxic effects
additive cytotoxic effect in combination therapy with palbociclib [1, 3]: did not exhibit any significant additive cytotoxic effects
additive cytotoxic effect in combination therapy with AZD7762 [1, 4]: not significant
additive cytotoxic effect in combination therapy with adavosertib [1, 4]: not significant
additive cytotoxic effect in combination therapy with ceralasertib [1, 4]: not significant
additive cytotoxic effect in combination therapy with AZD7762 ([1]; H460 (wild-type p53), medium and high concentrations): certain additive cytotoxic effects
additive cytotoxic effect in combination therapy with ceralasertib ([1]; H460 (wild-type p53), medium or high concentration): certain additive cytotoxic effects
additive cytotoxic effect in combination therapy with adavosertib ([1]; H460 (wild-type p53), medium or high concentrations): certain additive cytotoxic effects
additive cytotoxic effect in combination therapy with AZD7762 ([1]; H460 (wild-type p53), other concentrations than 160 nM AZD7762): did not exhibit any additive cytotoxic effects
Ratio single/combo ([1]; H460, IC50 monotherapy / IC50 with 0.5 nM AZD7762): 1.20
Ratio single/combo ([1]; H460, IC50 monotherapy / IC50 with 0.5 nM adavosertib): 1.24
Ratio single/combo ([1]; H460, IC50 monotherapy / IC50 with 6.4 nM AZD7762): 1.00
Ratio single/combo ([1]; H460, IC50 monotherapy / IC50 with 6.4 nM adavosertib): 0.90
Ratio single/combo ([1]; H460, IC50 monotherapy / IC50 with 160 nM AZD7762): 3.81
Ratio single/combo ([1]; H460, IC50 monotherapy / IC50 with 160 nM adavosertib): 1.19
Ratio single/combo ([1]; H460, IC50 monotherapy / IC50 with 800 nM adavosertib): 1.41
Ratio combo/single ([1]; H460, IC50 with 0.05 nM palbociclib / IC50 monotherapy): 1.08
Ratio combo/single ([1]; H460, IC50 with 0.64 nM palbociclib / IC50 monotherapy): 1.35
Ratio combo/single ([1]; H460, IC50 with 400 nM palbociclib / IC50 monotherapy): 2.55
IC50 ([1]; NCI-H460, 72 h, H460, monotherapy): 4.08 nM
IC50 ([1]; NCI-H460, H460, with 0.05 nM palbociclib (2 h pretreatment)): 4.39 nM
IC50 ([1]; NCI-H460, H460, with 0.5 nM AZD7762 (2 h pretreatment)): 3.4 nM
IC50 ([1]; NCI-H460, H460, with 0.5 nM adavosertib (2 h pretreatment)): 3.29 nM
IC50 ([1]; NCI-H460, H460, with 0.64 nM palbociclib (2 h pretreatment)): 5.5 nM
IC50 ([1]; NCI-H460, H460, with 6.4 nM AZD7762 (2 h pretreatment)): 4.08 nM
IC50 ([1]; NCI-H460, H460, with 6.4 nM adavosertib (2 h pretreatment)): 4.53 nM
IC50 ([1]; NCI-H460, H460, with 160 nM AZD7762 (2 h pretreatment)): 1.07 nM
IC50 ([1]; NCI-H460, H460, with 160 nM adavosertib (2 h pretreatment)): 3.44 nM
IC50 ([1]; NCI-H460, H460, with 400 nM palbociclib (2 h pretreatment)): 10.4 nM
IC50 ([1]; NCI-H460, H460, with 800 nM adavosertib (2 h pretreatment)): 2.89 nM
additive cytotoxic effect in combination therapy with palbociclib ([2]; HT29 (p53-deficient), drugs at low concentrations): certain additive cytotoxic effects
additive cytotoxic effect in combination therapy with ceralasertib ([2]; HT29 (p53-deficient), various concentrations): significant additive cytotoxic effects
additive cytotoxic effect in combination therapy with AZD7762 [2, 5]: significant additive cytotoxic effects
additive cytotoxic effect in combination therapy with adavosertib [2, 5]: significant additive cytotoxic effects
additive cytotoxic effect in combination therapy with palbociclib [2, 5]: significant additive cytotoxic effects
Ratio single/combo ([2]; HT29, IC50 monotherapy / IC50 with 100 nM AZD7762): 95.61
Ratio single/combo ([2]; HT29, IC50 monotherapy / IC50 with 100 nM adavosertib): 44.97
Ratio single/combo ([2]; HT29, IC50 monotherapy / IC50 with 130 nM AZD7762): 105.70
Ratio single/combo ([2]; HT29, IC50 monotherapy / IC50 with 130 nM adavosertib): 95.54
Ratio single/combo ([2]; HT29, IC50 monotherapy / IC50 with 160 nM AZD7762): 107.78
Ratio single/combo ([2]; HT29, IC50 monotherapy / IC50 with 160 nM adavosertib): 114.24
IC50 ([2]; HT-29, 72 h, HT29, monotherapy): 1370 nM
IC50 ([2]; HT-29, HT29, with 50 nM palbociclib (2 h pretreatment)): 1060 nM
IC50 ([2]; HT-29, HT29, with 100 nM AZD7762 (2 h pretreatment)): 14.3 nM
IC50 ([2]; HT-29, HT29, with 100 nM adavosertib (2 h pretreatment)): 30.5 nM
IC50 ([2]; HT-29, HT29, with 130 nM AZD7762 (2 h pretreatment)): 13 nM
IC50 ([2]; HT-29, HT29, with 130 nM adavosertib (2 h pretreatment)): 14.4 nM
IC50 ([2]; HT-29, HT29, with 160 nM AZD7762 (2 h pretreatment)): 12.7 nM
IC50 ([2]; HT-29, HT29, with 160 nM adavosertib (2 h pretreatment)): 12 nM
IC50 ([2]; HT-29, HT29, with 1000 nM palbociclib (2 h pretreatment)): 1740 nM
IC50 ([2]; HT-29, HT29, with 5000 nM palbociclib (2 h pretreatment)): 1570 nM
